# Assay results published in ChEMBL document CHEMBL1128212, “Synthesis and biological evaluation of substituted flavones as gastroprotective agents” (1995).
# Tested on: Rattus norvegicus
# Assay: Compound was evaluated for its effect on rat liver microsomal EROD(7-ethoxyresorufin O-dealkylase) by the change in its concentration at a dose of 268 mg/kg
# Assay type: functional, organism-based
# Design: dose 268 mg/kg
# Details: not given
row,Structure (SMILES),Concentration (nM min-1 (mg of protein)-1)
1,COc1cccc2oc(-c3ccc(F)cc3)cc(=O)c12,1110

# Tested on: Rattus norvegicus
# Assay: Compound was evaluated for its effect on rat liver microsomal cytochrome b5 by the change in its concentration at a dose of 268 mg/kg
# Assay type: functional, organism-based
# Design: dose 268 mg/kg
# Details: not given
row,Structure (SMILES),Concentration (nM min-1 (mg of protein)-1)
1,COc1cccc2oc(-c3ccc(F)cc3)cc(=O)c12,0.65

# Tested on: Rattus norvegicus
# Assay: Compound was evaluated for its effect on rat liver microsomal EROD(7-ethoxyresorufin O-dealkylase) by the change in its concentration at a dose of 250 mg/kg
# Assay type: functional, organism-based
# Design: dose 250 mg/kg
# Details: not given
row,Structure (SMILES),Concentration (nM min-1 (mg of protein)-1)
1,COc1ccc2c(=O)cc(-c3ccccc3)oc2c1 [7-METHOXYFLAVONE],442

# Tested on: Rattus norvegicus
# Assay: Gastroprotection percentage taken from rat indomethacin damage model at a dose 30 mg/kg administered orally
# Assay type: functional
# Details: route oral
row,Structure (SMILES),Protection [%]
1,COc1cccc2oc(-c3ccc(F)cc3)cc(=O)c12,76

# Tested on: Rattus norvegicus
# Assay: Compound was evaluated for its effect on rat liver microsomal cytochrome b5 by the change in its concentration at a dose of 100 mg/kg
# Assay type: functional, organism-based
# Design: dose 100 mg/kg
# Details: not given
row,Structure (SMILES),Concentration (nM min-1 (mg of protein)-1)
1,O=c1cc(-c2ccccc2)oc2ccc3ccccc3c12,0.79

# Tested on: Rattus norvegicus
# Assay: Compound was evaluated for its effect on rat liver microsomal cytochrome P450 by the change in its concentration at a dose of 100 mg/kg
# Assay type: functional, organism-based
# Design: dose 100 mg/kg
# Details: not given
row,Structure (SMILES),Concentration (nM min-1 (mg of protein)-1)
1,O=c1cc(-c2ccccc2)oc2ccc3ccccc3c12,2.02

# Tested on: Rattus norvegicus
# Assay: Gastroprotection percentage taken from rat indomethacin damage model at a dose 0.25 mg/kg administered orally
# Assay type: functional
# Details: route oral
row,Structure (SMILES),Protection [%]
1,CCCCC[C@H](O)/C=C/[C@H]1[C@H](O)CC(=O)[C@@H]1C/C=C\CCCC(=O)O [DINOPROSTONE],61

# Tested on: Rattus norvegicus
# Assay: Compound was evaluated for its effect on rat liver microsomal NADPH-[…] c reductase by the change in its concentration at a dose of 250 mg/kg
# Assay type: functional, organism-based
# Design: dose 250 mg/kg
# Details: not given
row,Structure (SMILES),Concentration (nM min-1 (mg of protein)-1)
1,COc1ccc2c(=O)cc(-c3ccccc3)oc2c1 [7-METHOXYFLAVONE],339

# Tested on: Rattus norvegicus
# Assay: Compound was evaluated for its effect on rat liver microsomal cytochrome b5 by the change in its concentration at a dose of 250 mg/kg
# Assay type: functional, organism-based
# Design: dose 250 mg/kg
# Details: not given
row,Structure (SMILES),Concentration (nM min-1 (mg of protein)-1)
1,COc1ccc2c(=O)cc(-c3ccccc3)oc2c1 [7-METHOXYFLAVONE],0.73

# Tested on: Rattus norvegicus
# Assay: Percent protection from gastric damage in rats relative to vehicle control following intraperitoneal administration of 20 mg/Kg
# Assay type: functional, Stomach
# Details: not given
row,Structure (SMILES),Protection [%]
1,O=c1cc(-c2ccccc2)oc2cccc(O)c12 [5-HYDROXYFLAVONE],58
2,CCCCOc1cccc2oc(-c3ccccc3)cc(=O)c12,75
3,CCOc1ccc2c(=O)cc(-c3ccccc3)oc2c1,87
4,COc1ccc(-c2cc(=O)c3c(OC)cccc3o2)cc1,33
5,COc1cccc2oc(-c3ccc(C)cc3)cc(=O)c12,93
6,CN/C(=N\CCSCc1nc[nH]c1C)NC#N [CIMETIDINE],14
7,COc1cccc2oc(-c3cccc(C(F)(F)F)c3)cc(=O)c12,90
8,Cc1ccc(-c2cc(=O)c3ccccc3o2)cc1,68
9,COc1ccc(-c2cc(=O)c3ccccc3o2)cc1 [4'-METHOXYFLAVONE],21
10,O=c1cc(-c2ccc(O)cc2)oc2ccccc12,63
11,COc1ccc2c(=O)cc(-c3ccc(F)cc3)oc2c1,67
12,Cc1cccc2oc(-c3ccccc3)cc(=O)c12,52
13,COc1c(-c2ccccc2)oc2ccccc2c1=O,41
14,O=c1cc(-c2ccccc2)oc2c(O)cccc12,46
15,COc1cccc2oc(-c3ccc(C(F)(F)F)cc3)cc(=O)c12,65
16,COc1ccc2c(=O)cc(-c3cccc(C(F)(F)F)c3)oc2c1,67
17,Cc1ccccc1-c1cc(=O)c2ccccc2o1,92
18,COc1cccc(-c2cc(=O)c3ccccc3o2)c1,48
19,COc1ccc2c(=O)cc(-c3ccccc3Cl)oc2c1,80

row,Structure (SMILES),Protection [%]
1,O=c1cc(-c2ccccc2O)oc2ccccc12,78
2,Cc1ccc2c(=O)cc(-c3ccccc3)oc2c1 [7-METHYLFLAVONE],90
3,COc1ccccc1-c1cc(=O)c2ccccc2o1,66
4,COc1cccc2oc(-c3ccccc3)cc(=O)c12,97
5,O=c1cc(-c2cccc(O)c2)oc2ccccc12,71
6,COc1cccc2oc(-c3ccc(Cl)cc3)cc(=O)c12,94
7,O=c1c(O)c(-c2ccccc2)oc2ccccc12 [FLAVONOL],47
8,COc1cccc2c(=O)cc(-c3ccccc3)oc12 [8-METHOXYFLAVONE],53
9,O=c1cc(-c2ccccc2)oc2ccccc12 [FLAVONE],93
10,CCCCC[C@H](O)/C=C/[C@H]1[C@H](O)CC(=O)[C@@H]1C/C=C\CCCC(=O)O [DINOPROSTONE],82
11,O=c1cc(-c2ccccc2)oc2ccc(O)cc12 [6-HYDROXYFLAVONE],57
12,COc1cccc2oc(-c3ccc([N+](=O)[O-])cc3)cc(=O)c12,52
13,CCOc1cccc2oc(-c3ccccc3)cc(=O)c12,36
14,COc1cccc2oc(-c3ccccc3Cl)cc(=O)c12,89
15,O=c1cc(-c2ccccc2)oc2cc(O)ccc12 [7-HYDROXYFLAVONE],75
16,COc1cccc2oc(-c3ccc(F)cc3)cc(=O)c12,97
17,COc1ccc2c(=O)cc(-c3ccccc3)oc2c1 [7-METHOXYFLAVONE],89
18,COc1ccc2oc(-c3ccccc3)cc(=O)c2c1 [6-METHOXYFLAVONE],29
19,C=CCOc1cccc2oc(-c3ccccc3)cc(=O)c12,57

# Tested on: Rattus norvegicus
# Assay: Compound was evaluated for its effect on rat liver microsomal NADPH-[…] c reductase by the change in its concentration at a dose of 100 mg/kg
# Assay type: functional, organism-based
# Design: dose 100 mg/kg
# Details: not given
row,Structure (SMILES),Concentration (nM min-1 (mg of protein)-1)
1,O=c1cc(-c2ccccc2)oc2ccc3ccccc3c12,166

# Tested on: Rattus norvegicus
# Assay: Compound was evaluated for its effect on rat liver microsomal cytochrome P450 by the change in its concentration at a dose of 250 mg/kg
# Assay type: functional, organism-based
# Design: dose 250 mg/kg
# Details: not given
row,Structure (SMILES),Concentration (nM min-1 (mg of protein)-1)
1,COc1ccc2c(=O)cc(-c3ccccc3)oc2c1 [7-METHOXYFLAVONE],1.42

# Species: Rattus norvegicus
# Assay: The dose required to produce a 50% gastroprotection level relative to control
# Assay type: functional
# Details: not given
row,Structure (SMILES),ED50 [mg/kg]
1,COc1cccc2oc(-c3cccc(C(F)(F)F)c3)cc(=O)c12,3.3
2,COc1ccc2c(=O)cc(-c3ccc(F)cc3)oc2c1,8.9
3,O=c1cc(-c2ccccc2O)oc2ccccc12,15.6
4,Cc1ccc2c(=O)cc(-c3ccccc3)oc2c1 [7-METHYLFLAVONE],5.6
5,COc1ccccc1-c1cc(=O)c2ccccc2o1,22.4
6,COc1cccc2oc(-c3ccccc3)cc(=O)c12,2.6
7,O=c1cc(-c2ccccc2)oc2ccccc12 [FLAVONE],6.9
8,COc1cccc2oc(-c3ccc(F)cc3)cc(=O)c12,5.5
9,COc1ccc2c(=O)cc(-c3ccccc3)oc2c1 [7-METHOXYFLAVONE],5.9

# Tested on: Rattus norvegicus
# Assay: Compound was evaluated for its effect on rat liver microsomal NADPH-[…] c reductase by the change in its concentration at a dose of 268 mg/kg
# Assay type: functional, organism-based
# Design: dose 268 mg/kg
# Details: not given
row,Structure (SMILES),Concentration (nM min-1 (mg of protein)-1)
1,COc1cccc2oc(-c3ccc(F)cc3)cc(=O)c12,275

# Tested on: Rattus norvegicus
# Assay: Compound was evaluated for its effect on rat liver microsomal cytochrome P450 by the change in its concentration at a dose of 268 mg/kg
# Assay type: functional, organism-based
# Design: dose 268 mg/kg
# Details: not given
row,Structure (SMILES),Concentration (nM min-1 (mg of protein)-1)
1,COc1cccc2oc(-c3ccc(F)cc3)cc(=O)c12,1.17

# Tested on: Rattus norvegicus
# Assay: Compound was evaluated for its effect on rat liver microsomal EROD(7-ethoxyresorufin O-dealkylase) by the change in its concentration at a dose of 100 mg/kg
# Assay type: functional, organism-based
# Design: dose 100 mg/kg
# Details: not given
row,Structure (SMILES),Concentration (nM min-1 (mg of protein)-1)
1,O=c1cc(-c2ccccc2)oc2ccc3ccccc3c12,5010
